From US4472413A, “9'-Azabicyclo [3.3.1] nonyl benzamide” (Beecham Group p.l.c., priority 1981, dated 1984)

The molecules below were run on post-synaptic Dopamine (D.A.) receptors (assay: Inhibition of apomorphine induced climbing in the mouse). Settings: po, 4 hour post dosing; apomorphine 1 mg/kg subcutaneous; male CD1 mice.
Type: in vivo
Experimental: The results in the following table are an illustration of the anti-psychotic activity of the present compounds as shown by Inhibition of Apormorphine Induced Climbing in the Mouse, a standard test.
Inhibition of apomorphine induced climbing in the mouse
The test is based on that described by Protais, P., Constantin, J. and Schwartz J. C. (1976), Psychopharmacology, 50, 1-6.
When mice are given a dose of 1 mg/kg apomorphine and then placed in an enclosed environment, such as an inverted wire cage, they are seen to climb around the walls. This behavioural phenomenon is thought to be a consequence of the stimulation of post-synaptic Dopamine (D.A.) receptors in the nucleus accumbens. Inhibition of apomorphine induced climbing is therefore indicative of post-synaptic D.A. receptor blockage in the accumbens.
Groups of 10 male CD1 mice, weighing 25-30 g were pre-treated orally with either graded doses of the test compound or vehicle, at appropriate time intervals before the subcutaneous administration of a sub-maximal dose of apomorphine (1 mg/kg). Immediately after the apomorphine injection the mice were placed in wire `climbing cages` and each animal was scored for climbing behaviour at 10 and 20 minutes post apomorphine as follows:
Four paws on cage floor=0
The total score was calculated for each group of mice and expressed as a percentage inhibition of climbing. [formula]
ED50's and fiducial limits were calculated according to the method of Litchfield and Wilcoxon, the ED50 being the dose that produced a 50% inhibition of apomorphine-induced climbing.

Compared with `COc1cc(N)c(Cl)cc1C(=O)N[C@@H]1C[C@H]2CCC[C@@H](C1)N2Cc1ccc(F)cc1` [Example 1B, 4-Amino-5-chloro-2-methoxy-N-{3'β-[9'-(4-fluorobenzyl)-9'-azabicyclo[3.3.1]-nonyl]}-benzamide], `COc1cc(N)c(Cl)cc1C(=O)N[C@@H]1C[C@H]2CCC[C@@H](C1)N2Cc1ccc(Cl)cc1` [Example 2B] is 3.4-fold higher in “ED50 (dose that produced a 50% inhibition of apomorphine-induced climbing)” value: 0.008 mg/kg for the first, 0.027 mg/kg for the second.

For `COc1cc(N)c(Cl)cc1C(=O)N[C@@H]1C[C@H]2CCC[C@@H](C1)N2Cc1ccc(C)cc1` [Example 3B, 4-Amino-5-chloro-2-methoxy-N-{3'β[9'-(4-methylbenzyl)-9'-azabicyclo[3.3.1]-nonyl]}-benzamide], the “ED50 (dose that produced a 50% inhibition of apomorphine-induced climbing)” value was 0.07 mg/kg.
